{
  "source": "patent US20150181863A1",
  "about": "“FLEXIBLE SUPERABSORBENT BINDER POLYMER AND ANTIMICROBIAL AGENT COMPOSITION” (EVONIK INDUSTRIES AG, priority 2013, published 2015)",
  "tested_on": "Escherichia coli (ATCC 11229)/Staphylococcus aureus (ATCC 6538)/Pseudomonas aeruginosa (ATCC 27853)",
  "assay": "Zone of Inhibition Test, control line (organism not stated)",
  "type": "cell-based",
  "conditions": "5 μg disk, n = 1; one value only, organism not assigned; 48 hours at ambient temperature",
  "experimental": "Zone of inhibition testing with a variety of gram negative and gram positive bacteria was performed. The test material was brought into contact with a known amount of test microorganisms on an agar plate for 48 hours at ambient temperature. At the end of the contact time the diameter of inhibited colony formation (zone of inhibition) surrounding the test material was measured.\nReferenced method AATCC 147-1998 “Antibacterial Activity Assessment of Textile Materials: Parallel Streak Method” with changes for following Zone of Inhibition procedure (AATCC is “American Association of Textile Chemists and Colorists” located in Research Triangle Park, N.C.):\nOrganisms used in this study were Escherichia coli (ATCC 11229)/Staphylococcus aureus (ATCC 6538)/Pseudomonas aeruginosa (ATCC 27853) (ATCC is “American Type Culture Collection” an organization in Manassas, Va.). Washed cells were diluted in Butterfield's Phosphate buffer to a target titer of approximately 10^8 colony forming units (CFU)/mL. Agar plates for testing were brought to room temperature prior to inoculation. A sterile applicator swab was placed in cell suspension and excess fluid was expressed using the side of the centrifuge tube. […] At the end of the contact time, the diameter of inhibited colony formation (zone of inhibition) surrounding the test material was measured.",
  "data": [
    {"smiles": "CN[C@H](CC(C)C)C(=O)N[C@H]1C(=O)N[C@@H](CC(N)=O)C(=O)N[C@H]2C(=O)N[C@H]3C(=O)N[C@H](C(=O)N[C@H](C(=O)O)c4cc(O)cc(O)c4-c4cc3ccc4O)[C@H](O)c3ccc(c(Cl)c3)Oc3cc2cc(c3O[C@@H]2O[C@H](CO)[C@@H](O)[C@H](O)[C@H]2O[C@H]2C[C@](C)(N)[C@H](O)[C@H](C)O2)Oc2ccc(cc2Cl)[C@H]1O", "note": "[Positive Control, vancomycin]", "values": [
      {"measurement": "ZOI* (cm), single value for control", "value": 1.9, "unit": "cm"}
    ]}
  ]
}
